One experiment concerns the target human AT1R (Homo sapiens (Human), UniProt P30556). Put plainly: Counterscreen radioligand binding assay, displacement of 125I-[Sar1, Ile8]-Angiotensin II, hAT1R WT. As to conditions: 125I-[Sar1, Ile8]-Ang II, semi-quantitative score; for inhibition at 1 µM: compound at 1 μM, read-out: % Displaced radioligand at 1 μM; for inhibition at 10 µM: compound at 10 μM, read-out: % Displaced radioligand at 10 μM. The method in brief:
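Compounds displaced 0.05 nM 125I-[Sar1, Ile8]-Ang II from human AT1R in HEK-293 membranes (1 h, 25° C; Tris/MgCl2/EDTA/BSA buffer, pH 7.4). Readout was filtration and scintillation counting, with non-specific binding set by 10 μM [Sar1]-Ang II. Values are % displacement at 1 μM and […], or IC50 from eight-point four-parameter fits.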

Another experiment addresses human AT2R fused to Cb23 (Homo sapiens, UniProt P50052). In words: Radioligand binding assay, displacement of 125I-[Sar1, Ile8]-Angiotensin II, hAT2R Cb23. The following applies: displacement of 125I-[Sar1, Ile8]-Angiotensin II, human AT2R fused to Cb23, HEK-293 cell membrane preparations; read-out: Binding affinity on hAT2R_Cb23 IC50. The method in brief: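 Membranes from HEK-293 cells expressing human AT2R fused to Cb23 were incubated with 0.05 nM 125I-[Sar1, Ile8]-Angiotensin II in 100 μL buffer (50 mM Tris, 5 mM MgCl2, 1 mM EDTA, 0.1% BSA, pH 7.4) for one hour at 25° C. Ligands were tested as eight-point dose-response curves in duplicate, with C21 and Angiotensin II as references.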

The structures appear in SMILES notation.

human AT2R fused to Cb23, sequence (P50052 whole entry, looked up, the tested form may be a part): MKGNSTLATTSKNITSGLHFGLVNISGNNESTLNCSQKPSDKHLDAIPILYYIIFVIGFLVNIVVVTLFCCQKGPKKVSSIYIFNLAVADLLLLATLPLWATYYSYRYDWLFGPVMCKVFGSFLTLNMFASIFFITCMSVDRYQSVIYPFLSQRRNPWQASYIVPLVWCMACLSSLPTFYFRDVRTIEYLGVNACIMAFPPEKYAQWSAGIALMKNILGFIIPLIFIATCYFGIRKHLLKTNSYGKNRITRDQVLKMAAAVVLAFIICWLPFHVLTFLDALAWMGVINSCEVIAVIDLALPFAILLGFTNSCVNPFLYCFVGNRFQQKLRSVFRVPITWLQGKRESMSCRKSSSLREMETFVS
human AT1R, sequence (P30556 whole entry): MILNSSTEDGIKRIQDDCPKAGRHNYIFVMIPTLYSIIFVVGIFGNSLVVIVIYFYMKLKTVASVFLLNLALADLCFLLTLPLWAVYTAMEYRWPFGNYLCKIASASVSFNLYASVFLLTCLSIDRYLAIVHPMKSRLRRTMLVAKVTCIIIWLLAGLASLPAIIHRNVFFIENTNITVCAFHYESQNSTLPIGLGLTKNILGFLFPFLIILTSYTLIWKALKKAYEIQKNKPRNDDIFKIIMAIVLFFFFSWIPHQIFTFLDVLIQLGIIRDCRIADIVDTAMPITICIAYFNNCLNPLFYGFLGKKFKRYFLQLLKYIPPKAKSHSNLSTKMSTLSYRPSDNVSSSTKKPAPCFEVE

Take `c1ccc2sc(CN3CCN(c4cc(C5CC5)cnc4-c4nn[nH]n4)CC3)nc2c1` [Compound A-143, 2-[[4-[5-cycloprop-yl-2-(2H-tetrazol-5-yl)-3-pyridyl]piper-azin-1-yl]methyl]-1,3-benzothiazole]: at human AT1R, the inhibition at 1 µM was below 30% and the inhibition at 10 µM is below 30%. Besides, the IC50 on human AT2R fused to Cb23 is 5.46 µM.
As to `c1ccc2sc(CN3CCN(c4nc(C5CC5)ccc4-c4nn[nH]n4)CC3)nc2c1` [Compound A-145, 2-[[4-[6-cycloprop-yl-3-(2H-tetrazol-5-yl)-2-pyridyl]piper-azin-1-yl]methyl]-1,3-benzothiazole], at human AT1R, the inhibition at 1 µM was below 30% and the inhibition at 10 µM was below 30%. Moreover, the IC50 at human AT2R fused to Cb23 stood at 8.22 µM.
For `c1ccc2sc(CN3CCN(c4nc(C5CC5)cnc4-c4nn[nH]n4)CC3)nc2c1` [Compound A-146, 2-[[4-[6-cycloprop-yl-3-(2H-tetrazol-5-yl)pyrazin-2-yl]-piperazin-1-yl]-methyl]-1,3-benzo-thiazole], on human AT1R, the inhibition at 1 µM was below 30% and the inhibition at 10 µM was below 30%. In addition, the IC50 on human AT2R fused to Cb23 was 9.74 µM.
For `CC(C)Cc1cnc(-c2nn[nH]n2)c(N2CCN(Cc3nc4ccccc4s3)CC2)c1` [Compound A-147, 2-[[4-[5-isobutyl-2-(2H-tetrazol-5-yl)-3-pyridyl]piperazin-1-yl]methyl]-1,3-benzothiazole], at human AT1R, the inhibition at 1 µM was below 30% and the inhibition at 10 µM was below 30%. For the same molecule, the IC50 on human AT2R fused to Cb23 came to 1.47 µM.
Regarding `CC(C)Cc1ccc(-c2nn[nH]n2)c(N2CCN(Cc3nc4ccccc4s3)CC2)n1` [Compound A-148, 2-[[4-[6-isobutyl-3-(2H-tetrazol-5-yl)-2-pyridyl]piperazin-1-yl]methyl]-1,3-benzothiazole], at human AT1R, the inhibition at 1 µM was below 30% and the inhibition at 10 µM is below 30%. In addition, the IC50 on human AT2R fused to Cb23 was found to be 6.24 µM.
As to `c1ccc2sc(CN3CCN(c4cc(NCC5CC5)cnc4-c4nn[nH]n4)CC3)nc2c1` [Compound A-149, 5-[4-(1,3-benzo-thiazol-2-ylmethyl)-piperazin-1-yl]-N-(cyclopropylmeth-yl)-6-(2H-tetrazol-5-yl)pyridin-3-amine], on human AT1R, the inhibition at 1 µM was below 30% and the inhibition at 10 µM was below 30%. For the same molecule, on human AT2R fused to Cb23, the IC50 is 8.4 µM.
Take `CC(C)Oc1cc(F)c(-c2nn[nH]n2)c(N2CCN(Cc3nc4ccccc4c(=O)[nH]3)CC2)c1` [Compound A-151, 2-[[4-[3-fluoro-5-isopropoxy-2-(2H-tetrazol-5-yl)phen-yl]piperazin-1-yl]-methyl]-3H-quin-azolin-4-one]: on human AT1R, the inhibition at 1 µM was below 30% and the inhibition at 10 µM was below 30%. The IC50 on human AT2R fused to Cb23 was 6.79 µM.
As to `CC(C)Oc1cc(C2CC2)c(-c2nn[nH]n2)c(N2CCN(Cc3nc4ccccc4c(=O)[nH]3)CC2)c1` [Compound A-152], on human AT1R, the inhibition at 1 µM was below 30% and the inhibition at 10 µM was below 30%. The half-inhibitory concentration (IC50) on human AT2R fused to Cb23 was determined as 2.87 µM.
Turning to `CC(C)Cc1cc(N2CCN(Cc3nc4ccccc4c(=O)[nH]3)CC2)c(-c2nn[nH]n2)cc1F` [Compound A-153, 2-[[4-[4-fluoro-5-isobutyl-2-(2H-tetrazol-5-yl)phen-yl]piperazin-1-yl]-methyl]-3H-quin-azolin-4-one], at human AT1R, the inhibition at 1 µM is below 30% and the inhibition at 10 µM is below 30%. In addition, the IC50 at human AT2R fused to Cb23 amounted to 8.42 µM.
`CC(C)Cc1cc(F)c(-c2nn[nH]n2)c(N2CCN(Cc3nc4ccccc4c(=O)[nH]3)CC2)c1` [Compound A-154, 2-[[4-[3-fluoro-5-isobutyl-2-(2H-tetrazol-5-yl)phen-yl]piperazin-1-yl]-methyl]-3H-quin-azolin-4-one]: at human AT1R, the inhibition at 1 µM is below 30% and the inhibition at 10 µM was below 30%. In addition, the IC50 at human AT2R fused to Cb23 came to 0.16 µM.
On to `CCc1cc(OC(C)C)cc(N2CCN(Cc3cccnn3)CC2)c1-c1nn[nH]n1` [Compound A-159, 3-[[4-[3-ethyl-5-isopropoxy-2-(2H-tetrazol-5-yl)phen-yl]piperazin-1-yl]-methyl]pyridazine], for which, on human AT1R, the inhibition at 1 µM is below 30% and the inhibition at 10 µM was below 30%. Also, the IC50 at human AT2R fused to Cb23 was 3.08 µM.
`CC(C)Oc1cc(N2CCN(Cc3cccnn3)CC2)c(-c2nn[nH]n2)cc1C1CC1` [Compound A-160, 3-[[4-[4-cycloprop-yl-5-isopropoxy-2-(2H-tetrazol-5-yl)-phenyl]piperazin-1-yl]methyl]pyrid-azine]: on human AT1R, the inhibition at 1 µM was below 30% and the inhibition at 10 µM was below 30%. Besides, the half-inhibitory concentration (IC50) at human AT2R fused to Cb23 was found to be 4.94 µM.
Turning to `CC(C)Oc1cc(C2CC2)c(-c2nn[nH]n2)c(N2CCN(Cc3cccnn3)CC2)c1` [Compound A-161, 3-[[4-[3-cycloprop-yl-5-isopropoxy-2-(2H-tetrazol-5-yl)-phenyl]piperazin-1-yl]methyl]pyrid-azine], at human AT1R, the inhibition at 1 µM was below 30% and the inhibition at 10 µM was below 30%. The IC50 at human AT2R fused to Cb23 was 1.46 µM.
Take `CC(C)Cc1cc(N2CCN(Cc3cccnn3)CC2)c(-c2nn[nH]n2)cc1F` [Compound A-163, 3-[[4-[4-fluoro-5-isobutyl-2-(2H-tetrazol-5-yl)phen-yl]piperazin-1-yl]-methyl]pyridazine]: at human AT1R, the inhibition at 1 µM is below 30% and the inhibition at 10 µM was below 30%. For the same molecule, the half-inhibitory concentration (IC50) on human AT2R fused to Cb23 stood at 3.32 µM.
On to `CC(C)Cc1cc(F)c(-c2nn[nH]n2)c(N2CCN(Cc3cccnn3)CC2)c1` [Compound A-164, 3-[[4-[3-fluoro-5-isobutyl-2-(2H-tetrazol-5-yl)phen-yl]piperazin-1-yl]-methyl]pyridazine], for which, at human AT1R, the inhibition at 1 µM is below 30% and the inhibition at 10 µM was below 30%. Moreover, the 50% inhibitory concentration (IC50) at human AT2R fused to Cb23 was found to be 1.3 µM.
As to `CC(C)Cc1ccc(-c2nn[nH]n2)c(N2CCN(Cc3cccnn3)CC2)c1F` [Compound A-165, 3-[[4-[2-fluoro-3-isobutyl-6-(2H-tetrazol-5-yl)phen-yl]piperazin-1-yl]-methyl]pyridazine], at human AT1R, the inhibition at 1 µM was below 30% and the inhibition at 10 µM is below 30%. The 50% inhibitory concentration (IC50) on human AT2R fused to Cb23 was 0.681 µM.
As for `Cc1cc(CC(C)C)cc(N2CCN(Cc3cccnn3)CC2)c1-c1nn[nH]n1` [Compound A-167, 3-[[4-[5-isobutyl-3-methyl-2-(2H-tetrazol-5-yl)phen-yl]piperazin-1-yl]-methyl]pyridazine], at human AT1R, the inhibition at 1 µM was below 30% and the inhibition at 10 µM is below 30%. The IC50 on human AT2R fused to Cb23 came out at 0.0326 µM.
In the case of `CC(C)Cc1cc(C2CC2)c(-c2nn[nH]n2)c(N2CCN(Cc3cccnn3)CC2)c1` [Compound A-169, 3-[[4-[3-cycloprop-yl-5-isobutyl-2-(2H-tetrazol-5-yl)phen-yl]piperazin-1-yl]-methyl]pyridazine], on human AT1R, the inhibition at 1 µM was below 30% and the inhibition at 10 µM was below 30%. For the same molecule, the IC50 at human AT2R fused to Cb23 was found to be 0.0253 µM.
For `CNc1cc(-c2nn[nH]n2)c(N2CCN(Cc3cccnn3)CC2)cc1CC(C)C` [Compound A-170, 2-isobutyl-N-meth-yl-4-[4-(pyridazin-3-ylmethyl)piper-azin-1-yl]-5-(2H-tetrazol-5-yl)aniline], on human AT1R, the inhibition at 1 µM was below 30% and the inhibition at 10 µM is below 30%. Further, at human AT2R fused to Cb23, the 50% inhibitory concentration (IC50) came to 12.1 µM.
Turning to `CNc1cc(CC(C)C)cc(N2CCN(Cc3cccnn3)CC2)c1-c1nn[nH]n1` [Compound A-171, 5-isobutyl-N-meth-yl-3-[4-(pyridazin-3-ylmethyl)piper-azin-1-yl]-2-(2H-tetrazol-5-yl)aniline], on human AT1R, the inhibition at 1 µM is below 30% and the inhibition at 10 µM was below 30%. The IC50 at human AT2R fused to Cb23 was found to be 0.0158 µM.
For the molecule `CCNc1cc(-c2nn[nH]n2)c(N2CCN(Cc3cccnn3)CC2)cc1CC(C)C` [Compound A-172, N-ethyl-2-isobutyl-4-[4-(pyridazin-3-ylmethyl)piperazin-1-yl]-5-(2H-tetrazol-5-yl)aniline], at human AT1R, the inhibition at 1 µM is below 30% and the inhibition at 10 µM is below 30%. Moreover, the 50% inhibitory concentration (IC50) on human AT2R fused to Cb23 was 3.52 µM.
On to `CC(C)Cc1cc(F)c(-c2nn[nH]n2)c(N2CCN(Cc3cccnn3)[C@H](C)C2)c1` [Compound A-175, 3-[[(2R)-4-[3-fluoro-5-isobutyl-2-(2H-tetrazol-5-yl)phenyl]-2-meth-yl-piperazin-1-yl]-methyl]pyridazine], for which, at human AT1R, the inhibition at 1 µM is below 30% and the inhibition at 10 µM is below 30%. At human AT2R fused to Cb23, the IC50 was 0.322 µM.
For the molecule `CC(C)Cc1ccc(-c2nn[nH]n2)c(N2CCN(Cc3cccnn3)[C@@H](C)C2)c1F` [Compound A-176, 3-[[(2S)-4-[2-fluoro-3-isobutyl-6-(2H-tetrazol-5-yl)phenyl]-2-methyl-piperazin-1-yl]methyl]pyridazine], at human AT1R, the inhibition at 1 µM was below 30% and the inhibition at 10 µM was below 30%. In addition, at human AT2R fused to Cb23, the half-maximal inhibitory concentration (IC50) is 0.0287 µM.
For the molecule `CC(C)Cc1cnc(-c2nn[nH]n2)c(N2CCN(Cc3cccnn3)[C@@H](C)C2)c1` [Compound A-177, 3-[[(2S)-4-[5-isobutyl-2-(2H-tetrazol-5-yl)-3-pyridyl]-2-methyl-piperazin-1-yl]methyl]pyridazine], at human AT1R, the inhibition at 1 µM is below 30% and the inhibition at 10 µM was below 30%. The IC50 on human AT2R fused to Cb23 worked out at 0.585 µM.

Values taken from patent publication US20240368133A1, “Compounds for the Treatment of Pain, in Particular, Neuropathic Pain, and/or Other Diseases or Disorders that are Associated with AT2R and/or AT2R Mediated Signaling” (Confo Therapeutics N.V., priority 2021, published 2024).
